For data set [1], the system named is doxorubicin (DOX)-treated C57Bl/6J female mice. Nature of the data set: Anthracycline (doxorubicin)-induced cardiotoxicity model, echocardiography and organ weights. The data set is classed as in vivo. To be noted: chronic DOX, cumulative dose 20 mg/kg body weight IP over 4 weeks, vs saline. The method, then:
Cardiac toxicity experiments: Eight-week-old C57Bl/6J female mice were purchased from Envigo (Gannat, France). Following 2 weeks of acclimatization, mice were randomized (1:1) to receive either mouse monoclonal anti-ACBP-neutralizing antibody (5 mg/kg body weight, injected intraperitoneally once per week) or mouse isotype IgG (negative control; 5 mg/kg body weight). Each group was further randomized (1:1) to receive a weekly intraperitoneal injection of saline or doxorubicin (5 mg/kg body weight; cumulative dose of 20 mg/kg body weight over 4 weeks) (Sigma, #MKCM8540). Of note, anti-ACBP was always administered 24 hours prior to doxorubicin injection. All mice used in this study were housed in a temperature-controlled environment with 12 h light/dark cycles and ad libitum access to food and water.
Echocardiography. Mice were lightly anesthetized (5% for induction; 1.5% isoflurane for maintenance) and body temperature was kept at 37° C. using a temperature-controlled heating platform. […] Ejection fraction was determined to assess systolic function, while diastolic function was evaluated using the ratio between peak early-filling velocity of transmitral flow (E) and the corresponding mitral valve annulus velocity (e′) determined using pulsed-wave and tissue Doppler imaging, respectively. […]

A further data set deals with p21. Nature of the data set: Immunostaining of senescence marker p21 in cardiac sections of doxorubicin-treated mice. The data set is classed as in vivo. To be noted: DOX cumulative 20 mg/kg over 4 weeks; vs saline; FIGS. 2A-2B. The method, then: Immunohistochemistry of p21: On the day of euthanasia, left ventricles were briefly rinsed with PBS and fixed for 16-24 h in a 4% formaldehyde solution (F8775, Sigma, diluted in PBS, pH=7.4). After fixation, tissues were transferred to 70% ethanol until inclusion in paraffin. Paraffin-embedded tissue were cut to 2-3 μm sections, air dried and let to dry completely at 60° C. overnight. Cell Conditioning 1 buffer (64/457,5001, Roche) was used for antigen retrieval, and casein (ref: 760-219, Roche) was used as blocking agent. The antibody directed against p21 (clone HUGO 291H/B5, CNIO) was diluted 1:50 in EnVision FLEX Antibody Diluent (K800621, Dako-Agilent). Staining was performed on the Ventana discovery XT platform for 60 minutes (ready-to-use). […] The specificity of the staining was assessed in each organ by using rat IgG isotype control (6-001-F, R&D Systems) as primary antibody.
Quantification of the p21 staining was done on the QuPath analysis software after blinding the samples names. […] Non-cardiomyocytes regions were excluded from the area of analysis and, after color deconvolution, a threshold was applied to automatically quantify the p21+ cardiomyocytes area. The average value in the 10 regions of interest was plotted for each animal, and analyzed by two-way ANOVA to determine the effect of doxorubicin treatment, ACBP/DBI neutralization, and their interaction.

Take `COc1cccc2c1C(=O)c1c(O)c3c(c(O)c1C2=O)C[C@@](O)(C(=O)CO)C[C@@H]3O[C@H]1C[C@H](N)[C@H](O)[C@H](C)O1` [DOX, doxorubicin]: the “left ventricular ejection fraction” value in data set [1] (FIG. 1B) is recorded as “clearly reduced”. In data set [1] (FIG. 1C), the ventricular dilation entry is listed as “causing ventricular dilation”. In the data set on p21, the “p21 staining in cardiomyocytes” value is “increased the presence of p21 staining”.

(Values after US20260001949A1, “NEUTRALIZATION OF ACYL-COA BINDING PROTEIN FOR THE TREATMENT OF CARDIAC DYSFUNCTION” (INSERM (INSTITUT NATIONAL DE LA SANTÉ ET DE LA RECHERCHE …, priority 2022, published 2026).)
